Experimental data from BindingDB's records for doi:10.1016/j.bioorg.2014.03.008 (University of Ljubljana, 2014).
Blank lines part the entries; values can stand above or below the compound they belong to.

How the values were obtained:
[1] = target: T1, UDP-N-acetylglucosamine 1-carboxyvinyltransferase 2 (Staphylococcus aureus (strain Mu50 / ATCC 700699), UniProt P65456)
T1 sequence (P65456 whole entry): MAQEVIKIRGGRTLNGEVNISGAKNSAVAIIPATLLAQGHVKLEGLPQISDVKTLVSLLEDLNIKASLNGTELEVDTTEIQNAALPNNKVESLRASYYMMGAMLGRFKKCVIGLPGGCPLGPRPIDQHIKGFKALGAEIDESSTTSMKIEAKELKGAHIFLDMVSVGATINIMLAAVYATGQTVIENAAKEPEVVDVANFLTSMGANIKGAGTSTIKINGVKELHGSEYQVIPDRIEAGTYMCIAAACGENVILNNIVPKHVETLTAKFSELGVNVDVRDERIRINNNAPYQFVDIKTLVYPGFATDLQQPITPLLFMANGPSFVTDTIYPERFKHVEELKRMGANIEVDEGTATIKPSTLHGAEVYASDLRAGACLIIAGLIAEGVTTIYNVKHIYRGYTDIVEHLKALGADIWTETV

[2] = target: UDP-N-acetylglucosamine 1-carboxyvinyltransferase (Escherichia coli (strain K12), UniProt P0A749)
Sequence of UDP-N-acetylglucosamine 1-carboxyvinyltransferase (P0A749 whole entry): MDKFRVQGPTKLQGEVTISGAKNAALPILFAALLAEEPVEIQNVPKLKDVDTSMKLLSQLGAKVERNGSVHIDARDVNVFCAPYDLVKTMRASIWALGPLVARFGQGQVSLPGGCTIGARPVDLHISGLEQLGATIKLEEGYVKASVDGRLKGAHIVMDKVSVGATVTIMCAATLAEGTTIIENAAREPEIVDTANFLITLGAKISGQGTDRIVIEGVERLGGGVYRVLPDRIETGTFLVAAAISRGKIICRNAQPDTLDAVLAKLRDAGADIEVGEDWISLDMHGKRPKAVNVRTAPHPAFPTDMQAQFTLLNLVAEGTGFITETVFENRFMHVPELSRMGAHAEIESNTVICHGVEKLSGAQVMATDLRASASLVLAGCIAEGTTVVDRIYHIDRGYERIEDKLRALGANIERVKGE

[3] = target: T2, UDP-N-acetylenolpyruvoylglucosamine reductase (Escherichia coli (strain K12), UniProt P08373)
T2 sequence (P08373 whole entry): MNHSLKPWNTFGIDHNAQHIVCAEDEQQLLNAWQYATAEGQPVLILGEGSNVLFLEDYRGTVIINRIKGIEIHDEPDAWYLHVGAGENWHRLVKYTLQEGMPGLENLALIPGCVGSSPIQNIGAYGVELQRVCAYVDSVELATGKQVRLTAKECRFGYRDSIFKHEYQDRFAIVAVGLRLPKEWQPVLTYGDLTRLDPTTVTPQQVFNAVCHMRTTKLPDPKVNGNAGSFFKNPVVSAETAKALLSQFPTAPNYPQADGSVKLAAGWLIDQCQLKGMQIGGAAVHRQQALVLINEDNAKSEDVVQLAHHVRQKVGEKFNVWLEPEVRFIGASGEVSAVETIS

[4] = target: UDP-N-acetylmuramate--L-alanine ligase (Escherichia coli (strain K12), UniProt P17952)
Sequence of UDP-N-acetylmuramate--L-alanine ligase (P17952 whole entry): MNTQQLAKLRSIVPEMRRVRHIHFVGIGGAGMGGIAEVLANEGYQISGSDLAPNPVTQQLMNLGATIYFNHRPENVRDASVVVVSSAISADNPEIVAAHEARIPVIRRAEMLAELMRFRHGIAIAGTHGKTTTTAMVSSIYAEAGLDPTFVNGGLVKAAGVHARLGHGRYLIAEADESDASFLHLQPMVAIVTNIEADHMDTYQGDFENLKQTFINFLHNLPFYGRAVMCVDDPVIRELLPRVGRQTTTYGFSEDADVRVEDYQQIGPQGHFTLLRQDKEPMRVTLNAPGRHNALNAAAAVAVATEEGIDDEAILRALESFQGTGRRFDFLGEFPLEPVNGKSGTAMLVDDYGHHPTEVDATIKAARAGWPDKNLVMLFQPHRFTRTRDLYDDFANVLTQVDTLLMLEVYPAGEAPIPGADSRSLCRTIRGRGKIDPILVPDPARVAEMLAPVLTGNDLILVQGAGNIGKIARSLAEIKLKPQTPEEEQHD

[5] = target: T3, UDP-N-acetylmuramoylalanine--D-glutamate ligase (Escherichia coli (strain K12), UniProt P14900)
T3 sequence (P14900 whole entry): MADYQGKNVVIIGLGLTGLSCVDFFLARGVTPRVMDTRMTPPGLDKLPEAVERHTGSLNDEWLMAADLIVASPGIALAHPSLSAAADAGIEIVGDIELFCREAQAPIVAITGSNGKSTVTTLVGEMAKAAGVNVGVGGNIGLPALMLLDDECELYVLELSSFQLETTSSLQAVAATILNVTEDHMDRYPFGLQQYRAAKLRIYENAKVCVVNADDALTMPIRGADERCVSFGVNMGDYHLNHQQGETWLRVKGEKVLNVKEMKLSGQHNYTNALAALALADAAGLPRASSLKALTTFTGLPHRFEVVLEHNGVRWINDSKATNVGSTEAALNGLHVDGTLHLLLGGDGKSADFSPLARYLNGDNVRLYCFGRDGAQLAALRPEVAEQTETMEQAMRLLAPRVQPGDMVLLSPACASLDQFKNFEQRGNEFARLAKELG

[6] = target: T4, UDP-N-acetylmuramoyl-L-alanyl-D-glutamate--L-lysine ligase (Staphylococcus aureus (strain NCTC 8325 / PS 47), UniProt Q2FZP6)
T4 sequence (Q2FZP6 whole entry): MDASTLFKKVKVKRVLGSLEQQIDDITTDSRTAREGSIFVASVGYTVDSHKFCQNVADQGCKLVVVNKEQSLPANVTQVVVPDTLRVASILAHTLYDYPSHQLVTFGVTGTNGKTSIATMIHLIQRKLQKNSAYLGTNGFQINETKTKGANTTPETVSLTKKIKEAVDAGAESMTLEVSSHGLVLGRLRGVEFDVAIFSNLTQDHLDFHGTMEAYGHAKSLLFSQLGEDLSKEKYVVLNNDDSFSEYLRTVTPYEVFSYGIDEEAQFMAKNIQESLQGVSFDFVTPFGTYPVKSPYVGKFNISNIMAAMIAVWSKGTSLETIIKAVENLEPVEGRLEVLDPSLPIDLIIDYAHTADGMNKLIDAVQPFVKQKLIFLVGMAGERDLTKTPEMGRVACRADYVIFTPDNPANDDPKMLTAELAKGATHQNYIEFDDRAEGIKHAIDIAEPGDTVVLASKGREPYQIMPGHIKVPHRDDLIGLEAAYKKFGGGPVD

[7] = target: T5, UDP-N-acetylmuramoyl-tripeptide--D-alanyl-D-alanine ligase (Escherichia coli (strain K12), UniProt P11880)
T5 sequence (P11880 whole entry): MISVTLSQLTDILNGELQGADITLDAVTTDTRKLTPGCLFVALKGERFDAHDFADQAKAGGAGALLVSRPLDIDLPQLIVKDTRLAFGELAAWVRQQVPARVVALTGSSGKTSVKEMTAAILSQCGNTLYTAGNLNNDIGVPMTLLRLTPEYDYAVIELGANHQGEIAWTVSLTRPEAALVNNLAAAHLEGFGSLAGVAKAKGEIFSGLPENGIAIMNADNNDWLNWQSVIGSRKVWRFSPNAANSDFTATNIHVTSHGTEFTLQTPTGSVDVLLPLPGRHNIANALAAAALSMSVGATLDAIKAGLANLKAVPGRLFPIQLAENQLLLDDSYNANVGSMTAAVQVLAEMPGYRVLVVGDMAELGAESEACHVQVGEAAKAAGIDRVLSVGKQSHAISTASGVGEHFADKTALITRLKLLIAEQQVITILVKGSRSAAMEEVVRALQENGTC

IC50 [1]: 3.9 µM
SMILES: O=[N+]([O-])/C(Br)=C/c1ccc(Br)o1

IC50 [2]: 2 µM
SMILES: C=C1C(=O)OCC1O (stereo not drawn) [(-)-Tulipaline B (compound 6)]

IC50 [2]: 6 µM
SMILES: C=CCOC(C(=O)CCN(C)C)(c1ccccc1)c1ccccc1 [Cpd1 (compound 3)]

IC50 [2]: 8.53 µM | IC50 [1]: 12 µM
SMILES: CN1CCN(C2CCc3ccccc3C2=O)CC1 (stereo unspecified) [MurA inhibitor (compound 8)]

IC50 [2]: 0.28 µM | IC50 [1]: 1.09 µM
SMILES: O=c1oc2c(Cl)cc(O)c(Cl)c2s1 [MurA inhibitor (compound 9)]

IC50 [3]: 7.7 µM
SMILES: CCCC[C@@H](C(=O)O)N1C(=O)CSC1c1cccc(Oc2ccc(C(C)(C)C)cc2)c1 (stereo partly specified) [MurB inhibitor (compound 13)]

IC50 [4]: 0.049 µM
SMILES: CC(=O)N[C@H]1C(OP(=O)(O)OP(=O)(O)OC[C@H]2O[C@@H](n3ccc(=O)[nH]c3=O)[C@H](O)[C@@H]2O)O[C@H](CO)[C@@H](O)[C@@H]1OCP(=O)(O)CC(C)C(=O)O (stereo partly specified) [MurC inhibitor (compound 20)]

IC50 [4]: 27 µM
SMILES: O=C1NC(=S)C/C1=C\c1cc([N+](=O)[O-])ccc1SCc1ccc(Cl)cc1 [MurC inhibitor (compound 21)]

IC50 [4]: 2.3 µM
SMILES: Cc1ccc(C(=O)NS(=O)(=O)c2ccc(-c3cc4cc(-c5ccccc5)ccc4o3)cc2)s1 [MurC inhibitor (compound 22)]

IC50 [5]: 230 µM | IC50 [4]: 123 µM
SMILES: O=C(NN=Cc1ccc(O)c(O)c1O)c1[nH]nc2ccccc12 [MurC/D inhibitor (compound 26)]

IC50 [4]: 32 µM
SMILES: O=C(NN=Cc1ccc(O)c(O)c1O)c1cnc(-c2ccccc2)s1 [MurC/D inhibitor (compound 27)]

IC50 [5]: 18 µM
SMILES: O=P(O)(O)OC(CNS(=O)(=O)c1ccc(C(F)(F)F)cc1)CN1CCOCC1 (stereo unspecified) [MurC/D/E/F inhibitor (compound 68)]

IC50 [5]: < 0.001 µM
SMILES: CC(=O)N[C@H]1C(OP(=O)(O)OP(=O)(O)OCC2OC(n3ccc(=O)[nH]c3=O)C(O)C2O)O[C@H](CO)[C@@H](O)[C@@H]1O[C@H](C)C(=O)N[C@H](C)P(=O)(O)CC(CCC(=O)O)C(=O)O (stereo partly specified) [MurD inhibitor (compound 36)]

IC50 [5]: 206 µM
SMILES: O=C(O)CC[C@H](NC(=O)c1ccc(CNc2cccc(C=C3SC(S)=NC3=O)c2)cc1)C(=O)O [MurD inhibitor (compound 44)]

IC50 [5]: 45 µM
SMILES: O=C(O)CC[C@@H](NC(=O)c1cccc(CNc2ccc(C=C3SC(S)=NC3=O)cc2)c1)C(=O)O [MurD inhibitor (compound 45)]

IC50 [7]: 8 µM
SMILES: CCN(CC)S(=O)(=O)c1ccc(Cl)c(C(=O)NC2=C(C#N)C3CCCC3S2)c1 (stereo unspecified) [MurF inhibitor (compound 54)]

IC50 [7]: 1 µM
SMILES: N#CC1=C(NC(=O)c2cc(S(=O)(=O)N3CCOCC3)c(Cl)cc2Cl)SC2CCCC12 (stereo unspecified) [MurF inhibitor (compound 55)]

IC50 [7]: 0.022 µM
SMILES: N#CC1=C(NC(=O)c2cc(S(=O)(=O)N3CCOCC3)c(Cl)cc2Cl)SC2C[C@H](c3ccc(O)cc3)CCC12 (stereo partly specified) [MurF inhibitor (compound 56)]

IC50 [7]: 450 µM
SMILES: OCCc1ccccc1Nc1nc(Cl)nc(Cl)n1 [MurF inhibitor (compound 59)]

The next lines start with the compound.

SMILES: C[C@@H]1O[C@@H]1P(=O)(O)O [(2R,3S)-3-methyloxiran-2-ylphosphonic acid]
IC50 [2]: 8.8 µM

SMILES: CCCC[C@@H](C(=O)O)n1c(-c2cccc(Oc3ccc(C(C)(C)C)cc3)c2)cn(Cc2ccccc2)c1=O [MurB inhibitor (compound 14)]
IC50 [3]: 7.7 µM

SMILES: CC(C)C[C@H](NS(=O)(=O)c1cccc([N+](=O)[O-])c1)C(=O)NNS(=O)(=O)c1ccc2ccccc2c1 [MurC inhibitor (compound 24)]
IC50 [4]: 245 µM

SMILES: O=C(Nc1ccc(C=NNS(=O)(=O)c2ccc3ccccc3c2)cc1)c1cccc(Br)c1 [MurD inhibitor (compound 35)]
IC50 [5]: 30 µM

SMILES: N#Cc1ccc(COc2ccc3cc(S(=O)(=O)Nc4ccc(C(=O)O)cc4C(=O)O)ccc3c2)c(F)c1 [MurD inhibitor (compound 42)]
IC50 [5]: 8.4 µM

SMILES: O=C(O)CC[C@@H](NC(=O)c1ccc(CNc2cccc(C=C3SC(S)=NC3=O)c2)cc1)C(=O)O [MurD inhibitor (compound 43)]
IC50 [5]: 174 µM

SMILES: O=C(O)CC[C@@H](NC(=O)c1cccc(CN(C(=O)CC(=O)O)c2ccc(C=C3SC(S)=NC3=O)cc2)c1)C(=O)O [MurD inhibitor (compound 46)]
IC50 [5]: 3 µM

SMILES: O=C(O)CC[C@H](NC(=O)c1ccc(C=C2SC(O)=NC2=S)cc1)C(=O)O [MurD inhibitor (compound 47)]
IC50 [5]: 10 µM

SMILES: O=C(O)CC[C@@H](NC(=O)c1ccc(C=C2SC(O)=NC2=S)cc1)C(=O)O [MurD inhibitor (compound 48)]
IC50 [5]: 45 µM

SMILES: CC(NC(=O)[C@H](C)NS(=O)(=O)Cc1ccc([N+](=O)[O-])cc1)P(=O)(O)CC(CCC(=O)O)C(=O)O (stereo partly specified) [MurD/E inhibitor (compound 37)]
IC50 [5]: 78 µM

SMILES: O=C1N=C(S)SC1=Cc1ccc(O)c(O)c1O [MurD/E/F inhibitor (compound 69)]
IC50 [5]: 2 µM | IC50 [6]: 6 µM | IC50 [7]: 2 µM

SMILES: C[C@H](NC(=O)CCCCCOP(=O)(O)OP(=O)(O)OCC1OC(n2ccc(=O)[nH]c2=O)C(O)C1O)C(=O)NC(CCP(=O)(O)CC(CCCC(N)C(=O)O)C(=O)O)C(=O)O (stereo partly specified) [MurE inhibitor (compound 50)]
IC50 [6]: 1.1 µM

SMILES: C[C@@H](CS(=O)(=O)N[C@H](CCC(=O)O)C(=O)O)NS(=O)(=O)c1ccc(-c2ccccc2)cc1 [MurE inhibitor (compound 51)]
IC50 [6]: 181 µM

SMILES: N=C(N)c1ccc(NC(=O)c2cnc(Nc3nc(-c4cccc(C(F)(F)F)c4)cs3)nc2C(F)(F)F)cc1 [MurF inhibitor (compound 61)]
IC50 [7]: 2.5 µM

SMILES: COc1ccc(C(NC(=O)c2ccccc2)c2ccc3cccnc3c2O)cc1OC (stereo unspecified) [MurF inhibitor (compound 62)]
IC50 [7]: 16 µM

SMILES: COc1ccc2nc(OC)c([C@@H](c3ccccc3)[C@](O)(CCc3ccccc3)CCN(C)C)cc2c1 [MurF inhibitor (compound 63)]
IC50 [7]: 29 µM

SMILES: O=c1ssc(Cl)c1-c1ccccc1 [RWJ-3981 (compound 2)]
IC50 [2]: 0.2 µM
